Measurements taken from ChEMBL document CHEMBL5543149, “Discovery of Novel Aryl Triazolone Dihydropyridines (ATDPs) Targeting Highly Conserved Residue W229 as Promising HIV-1 NNRTIs” (J Med Chem, 2024).
pEC50, pIC50: −log10 of the molar value. Values after ≈ are worked out from the molar mass of the structure shown.

Tests used:
[1] = Subacute toxicity in Kunming mouse assessed as lung damage at 50 mg/kg, po administered every 2 days for 2 weeks; format: organism-based; conditions: in vivo, 336 h
[2] = Subacute toxicity in Kunming mouse assessed as ruffled fur at 50 mg/kg, po administered every 2 days for 2 weeks; format: organism-based; conditions: in vivo, 336 h
[3] = Subacute toxicity in Kunming mouse assessed as spleen damage at 50 mg/kg, po administered every 2 days for 2 weeks; format: organism-based; conditions: in vivo, 336 h
[4] = AUC (0 to infinity) in Sprague-Dawley rat at 2 mg/kg, iv measured upto 24 hrs by LC-MS/MS analysis; format: ADME, organism-based; conditions: in vivo
[5] = Subacute toxicity in Kunming mouse assessed as anorexia at 50 mg/kg, po administered every 2 days for 2 weeks; format: organism-based; conditions: in vivo, 336 h
[6] = tested on: Human immunodeficiency virus 1; assay: Antiviral activity against wild type HIV-1 infected in mouse harboring K103N mutant at 10 mg/kg, po measured for 24 hrs; format: functional, organism-based; conditions: Human immunodeficiency virus 1, 24 h
[7] = tested on: Human immunodeficiency virus 1; assay: Antiviral activity against NNRTI-resistant HIV-1 harboring L100I mutant infected in human MT4 cells assessed as protection against virus-induced cytopathic effect by MTT assay; format: functional, organism-based; conditions: Human immunodeficiency virus 1, MT4
[8] = tested on: Human immunodeficiency virus 1; assay: Antiviral activity against wild type HIV-1 infected in mouse at 10 mg/kg, po measured for 24 hrs; format: functional, organism-based; conditions: Human immunodeficiency virus 1, 24 h
[9] = Water solubility of compound at pH 7.4 incubated for 2 hrs by HPLC analysis; format: physicochemical
[10] = tested on: Human immunodeficiency virus 1; assay: Antiviral activity against wild type HIV-1 infected in mouse harboring […] mutant at 10 mg/kg, po measured for 24 hrs; format: functional, organism-based; conditions: Human immunodeficiency virus 1, 24 h
[11] = Water solubility of compound at pH 7 incubated for 2 hrs by HPLC analysis; format: physicochemical
[12] = Half life in Sprague-Dawley rat at 2 mg/kg, iv measured upto 24 hrs by LC-MS/MS analysis; format: ADME, organism-based; conditions: in vivo
[13] = Tmax in Sprague-Dawley rat at 2 mg/kg, iv measured upto 24 hrs by LC-MS/MS analysis; format: ADME, organism-based; conditions: in vivo
[14] = Solubility of compound at pH 2 incubated for 2 hrs by HPLC analysis; format: physicochemical; conditions: buffer
[15] = tested on: Human immunodeficiency virus 1; assay: Antiviral activity against NNRTI-resistant HIV-1 harboring E138K mutant infected in human MT4 cells assessed as protection against virus-induced cytopathic effect by MTT assay; format: functional, organism-based; conditions: Human immunodeficiency virus 1, MT4
[16] = Clearance in Sprague-Dawley rat at 2 mg/kg, iv measured upto 24 hrs by LC-MS/MS analysis; format: ADME, organism-based; conditions: in vivo
[17] = Oral bioavailability in Sprague-Dawley rat at 10 mg/kg measured upto 24 hrs by LC-MS/MS analysis; format: ADME, organism-based; conditions: in vivo
[18] = AUC (0 to t ) in Sprague-Dawley rat at 10 mg/kg, po measured upto 24 hrs by LC-MS/MS analysis; format: ADME, organism-based; conditions: in vivo
[19] = tested on: Human immunodeficiency virus 1; assay: Antiviral activity against wild type HIV-1 IIIB infected in human MT4 cells assessed as protection against virus-induced cytopathic effect incubated for 5 days by MTT assay; format: functional, organism-based; conditions: Human immunodeficiency virus 1, IIIB, MT4, 120 h
[20] = Cmax in Sprague-Dawley rat at 2 mg/kg, iv measured upto 24 hrs by LC-MS/MS analysis; format: ADME, organism-based; conditions: in vivo
[21] = tested on: Human immunodeficiency virus 1; assay: Antiviral activity against wild type HIV-1 infected in mouse harboring L100I mutant at 10 mg/kg, po measured for 24 hrs; format: functional, organism-based; conditions: Human immunodeficiency virus 1, 24 h
[22] = Tmax in Sprague-Dawley rat at 10 mg/kg, po measured upto 24 hrs by LC-MS/MS analysis; format: ADME, organism-based; conditions: in vivo
[23] = tested on: Human immunodeficiency virus 1; assay: Antiviral activity against wild type HIV-1 infected in mouse harboring RES056 mutant at 10 mg/kg, po measured for 24 hrs; format: functional, organism-based; conditions: Human immunodeficiency virus 1, 24 h
[24] = Subacute toxicity in Kunming mouse assessed as heart damage at 50 mg/kg, po administered every 2 days for 2 weeks; format: organism-based; conditions: in vivo, 336 h
[25] = AUC (0 to infinity) in Sprague-Dawley rat at 10 mg/kg, po measured upto 24 hrs by LC-MS/MS analysis; format: ADME, organism-based; conditions: in vivo
[26] = tested on: Human immunodeficiency virus 1; assay: Antiviral activity against NNRTI-resistant HIV-1 harboring K103N mutant infected in human MT4 cells assessed as protection against virus-induced cytopathic effect by MTT assay; format: functional, organism-based; conditions: Human immunodeficiency virus 1, MT4
[27] = Subacute toxicity in Kunming mouse assessed as lethargy at 50 mg/kg, po administered every 2 days for 2 weeks; format: organism-based; conditions: in vivo, 336 h
[28] = Half life in Sprague-Dawley rat at 10 mg/kg, po measured upto 24 hrs by LC-MS/MS analysis; format: ADME, organism-based; conditions: in vivo
[29] = tested on: Human immunodeficiency virus 1; assay: Antiviral activity against NNRTI-resistant HIV-1 harboring RES056 mutant infected in human MT4 cells assessed as protection against virus-induced cytopathic effect by MTT assay; format: functional, organism-based; conditions: Human immunodeficiency virus 1, MT4
[30] = Subacute toxicity in Kunming mouse assessed as clonic convulsion at 50 mg/kg, po administered every 2 days for 2 weeks; format: organism-based; conditions: in vivo, 336 h
[31] = Acute toxicity in Kunming mouse assessed as change in body weight at 2000 mg/kg, po measured for 7 days; format: organism-based; conditions: in vivo, 168 h, time 7 day
[32] = tested on: Human immunodeficiency virus 1; assay: Antiviral activity against NNRTI-resistant HIV-1 harboring Y181C mutant infected in human MT4 cells assessed as protection against virus-induced cytopathic effect by MTT assay; format: functional, organism-based; conditions: Human immunodeficiency virus 1, MT4
[33] = tested on: Human immunodeficiency virus 1; assay: Antiviral activity against NNRTI-resistant HIV-1 harboring Y188L mutant infected in human MT4 cells assessed as protection against virus-induced cytopathic effect by MTT assay; format: functional, organism-based; conditions: Human immunodeficiency virus 1, MT4
[34] = Subacute toxicity in Kunming mouse assessed as kidney damage at 50 mg/kg, po administered every 2 days for 2 weeks; format: organism-based; conditions: in vivo, 336 h
[35] = tested on: Human immunodeficiency virus 1; assay: Antiviral activity against wild type HIV-1 infected in mouse harboring Y181C mutant at 10 mg/kg, po measured for 24 hrs; format: functional, organism-based; conditions: Human immunodeficiency virus 1, 24 h
[36] = Cmax in Sprague-Dawley rat at 10 mg/kg, po measured upto 24 hrs by LC-MS/MS analysis; format: ADME, organism-based; conditions: in vivo
[37] = Selectivity index, ratio of CC50 for cytotoxicity against human MT4 cells assessed as reduction in cell viability by MTT assay to EC50 for antiviral activity against wild type HIV-1 IIIB infected in human MT4 cells assessed as protection against virus-induced cytopathic effect; format: toxicity, cell-based; conditions: read-out: Ratio CC50/EC50
[38] = Cytotoxicity against human MT4 cells assessed as reduction in cell viability by MTT assay; format: toxicity, cell-based
[39] = Subacute toxicity in Kunming mouse assessed as liver damage at 50 mg/kg, po administered every 2 days for 2 weeks; format: organism-based; conditions: in vivo, 336 h
[40] = Acute toxicity in Kunming mouse assessed as behavioral abnormalities at 2000 mg/kg, po measured for 7 days; format: organism-based; conditions: in vivo, 168 h, time 7 day
[41] = tested on: Human immunodeficiency virus 1; assay: Antiviral activity against wild type HIV-1 infected in mouse harboring E138K mutant at 10 mg/kg, po measured for 24 hrs; format: functional, organism-based; conditions: Human immunodeficiency virus 1, 24 h
[42] = AUC (0 to t ) in Sprague-Dawley rat at 2 mg/kg, iv measured upto 24 hrs by LC-MS/MS analysis; format: ADME, organism-based; conditions: in vivo
[43] = target: Human immunodeficiency virus type 1 reverse transcriptase (Human immunodeficiency virus 1, UniProt Q72547); assay: Inhibition of wild type HIV-1 Reverse transcriptase assessed as reduction of biotin-dUTP incorporation into […] using ABTS as substrate preincubated with compound for 1 hr followed by substrate addition in presence of biotin-labeled dNTPs by ELISA analysis

In the case of `Cn1c(Cn2ccc(C(F)(F)F)c(Oc3cc(Cl)cc(-c4ccc(Br)cc4)c3)c2=O)n[nH]c1=O`, the Activity [1] was “Non-Toxic”, the Activity [2] was “Non-Toxic” and the Activity [3] was “Non-Toxic”. The AUC(0-inf) [4] was 7670 ng·h/mL, the Activity [5] was “Non-Toxic” and the pEC50 [6] was 7.89. It also gave a pEC50 [7] of 7.96, a pEC50 [8] of 8.05 and a solubility at 2 h [9] of 32.2 µg/mL (≈ 57.9 µM). The pEC50 [10] was 6.15, the solubility at 2 h [11] was 45.7 µg/mL (≈ 82.2 µM) and the half-life [12] was 4.49 h. The Tmax [13] was 3 min, the solubility at 2 h [14] was 107 µg/mL (≈ 193 µM) and the pEC50 [15] was 7.89. It also gave a clearance [16] of 4.35 mL/min/kg, a bioavailability [17] of 109% and an AUC(0-t) at 24 h [18] of 39600 ng·h/mL. For the same molecule, the pEC50 [19] was 8.05, the Cmax [20] was 1950 ng/mL and the pEC50 [21] was 7.96. The Tmax [22] was 4 h, the pEC50 [23] was 7.25 and the Activity [24] was “Non-Toxic”. The AUC(0-inf) [25] was 41800 ng·h/mL, the pEC50 [26] was 7.89 and the Activity [27] was “Non-Toxic”. For the same molecule, the half-life [28] was 5.09 h, the pEC50 [29] was 7.23 and the Activity [30] was “Non-Toxic”. The Activity [31] was “Non-Toxic”, the pEC50 [32] was 7.74 and the pEC50 [33] was 6.15. The Activity [34] was “Non-Toxic”, the pEC50 [35] was 7.80 and the Cmax [36] was 3340 ng/mL. The selectivity ratio [37] was 13100, the CC50 [38] was 118000 nM and the Activity [39] was “Non-Toxic”. The Activity [40] was “Non-Toxic”, the pEC50 [41] was 7.89 and the AUC(0-t) at 24 h [42] was 5490 ng·h/mL. It also gave a pIC50 [43] of 7.40.
